Data: patent US10688128B2, “Use of Z-butylidenephthalide in activating autoimmune system” (EVERFRONT BIOTECH INC., priority 2016, dated 2020)

How the values were obtained:
PDL-1 protein [1] = assay: Expression of PDL-1 protein by Western Blotting, RG2 cell line; type: cell-based; details: RG2 cell line (rat malignant glioma cells), various concentrations of Z-BP, 24 hours, actin internal control
Procedure: (§1) The RG2 cell line (rat malignant glioma cells), […] cell line (glioblastoma stem cells), Paca2 cell line (human pancreatic cancer cells), […] cell line (human non-small-cell lung cancer cells), or B16 cell line (mouse melanocytoma cells) were independently treated with various concentrations of Z-BP for 24 hours. Then, the proteins in the cells were extracted and the expressions of PDL-1 protein in the cancer cells treated with Z-BP were detected by Western Blotting. In addition, the expression of actin was detected and used as the internal control.

PDL-1 protein [2] = assay: Expression of PDL-1 protein by Western Blotting, H1650 cell line; type: cell-based; details: H1650 cell line (human non-small-cell lung cancer cells), various concentrations of Z-BP, 24 hours, actin internal control
Procedure: as §1

PDL-1 protein [3] = assay: Expression of PDL-1 protein by Western Blotting, 1×M cell line; type: cell-based; details: 1×M cell line (glioblastoma stem cells), various concentrations of Z-BP, 24 hours, actin internal control
Procedure: as §1

PDL-1 protein [4] = assay: Expression of PDL-1 protein by Western Blotting, Paca2 cell line; type: cell-based; details: Paca2 cell line (human pancreatic cancer cells), various concentrations of Z-BP, 24 hours, actin internal control
Procedure: as §1

PDL-1 protein [5] = assay: Expression of PDL-1 protein by Western Blotting, B16 cell line; type: cell-based; details: B16 cell line (mouse melanocytoma cells), various concentrations of Z-BP, 24 hours, actin internal control
Procedure: as §1

[6] = tested on: stage three or four melanoma; details: patients with stage three or four melanoma, Ipilimumab alone; cited from earlier work

| Molecule | expression of PDL-1 protein (PDL-1 protein [1]) | expression of PDL-1 protein (PDL-1 protein [2]) | expression of PDL-1 protein (PDL-1 protein [3]) | expression of PDL-1 protein (PDL-1 protein [4]) | expression of PDL-1 protein (PDL-1 protein [5]) | overall survival rate increased [6] [months] |
| --- | --- | --- | --- | --- | --- | --- |
| CCC/C=C1\OC(=O)c2ccccc21 [Z-BP, Z-butylidenephthalide] | significantly decreased | significantly decreased | significantly decreased | significantly decreased | significantly decreased | – |
| Ipilimumab | – | – | – | – | – | 10.1 |
